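Following 48 hours of exposure in 96-well plates, responses at five concentrations were used to interpolate endpoints linearly. GI50 marks 50% less growth. TGI marks complete inhibition of growth.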
Tests used:
Test in all cases: NCI-60 cell line screen, 48 h
DLD-1 colon = system: DLD-1 colon
HCT-15 colon = system: HCT-15 colon
LXFL 529 NSCLC = system: LXFL 529 NSCLC
MOLT-4 leukemia = system: MOLT-4 leukemia
NCI-H226 lung = system: NCI-H226 lung
OVCAR-5 ovarian = system: OVCAR-5 ovarian
TK-10 renal = system: TK-10 renal
UACC-62 melanoma = system: UACC-62 melanoma
HS 578T breast = system: HS 578T breast
PC-3 prostate = system: PC-3 prostate

Compound | TGI (DLD-1 colon) [µM] | TGI (HCT-15 colon) [µM] | TGI (LXFL 529 NSCLC) [µM] | TGI (MOLT-4 leukemia) [µM] | TGI (NCI-H226 lung) [µM] | TGI (OVCAR-5 ovarian) [µM] | TGI (TK-10 renal) [µM] | TGI (UACC-62 melanoma) [µM] | GI50 (DLD-1 colon) [µM] | GI50 (HCT-15 colon) [nM] | GI50 (LXFL 529 NSCLC) [µM] | GI50 (NCI-H226 lung) [nM] | GI50 (OVCAR-5 ovarian) [nM] | GI50 (TK-10 renal) [µM] | GI50 (UACC-62 melanoma) [nM] | GI50 (HS 578T breast) [nM] | TGI (HS 578T breast) [µM] | GI50 (MOLT-4 leukemia) [nM] | GI50 (PC-3 prostate) [nM] | TGI (PC-3 prostate) [µM]
Nc1c(-c2cn(Cc3ccccc3)c3ccccc23)[n+]([O-])c2ccccc2[n+]1[O-] | > 100 | > 100 | > 100 | 92.3 | 36.5 | > 100 | > 100 | > 100 | – | – | – | – | – | – | – | – | – | – | – | –
COc1cccc2ccc(C(=O)c3ccccc3)nc12 | > 100 | > 100 | > 100 | > 100 | > 100 | > 100 | > 100 | > 100 | – | – | – | – | – | – | – | – | – | – | – | –
CN1C(=O)CCC2[C@@H]3CC=C4C[C@@H](O)CC[C@]4(C)C3CC[C@@]21C (some centres not stated) | > 100 | > 100 | > 100 | 69.6 | > 100 | > 100 | > 100 | > 100 | – | – | – | – | – | – | – | – | – | – | – | –
COc1ccc2c(c1)[n+]([O-])c(-c1ccc([N+](=O)[O-])cc1)c(N)[n+]2[O-] | > 100 | – | > 100 | > 100 | > 100 | > 100 | – | – | – | – | – | – | – | – | – | – | – | – | – | –
O=C1CC(c2c(-c3ccccc3)[nH]c3ccccc23)C(=O)N1 (configuration not stated) | > 100 | > 100 | > 100 | > 100 | > 100 | > 100 | > 100 | > 100 | – | – | – | – | – | – | – | – | – | – | – | –
C#CCNC(=O)N(CC#C)N=O | > 100 | > 100 | > 100 | > 100 | > 100 | > 100 | > 100 | > 100 | – | – | – | – | – | – | – | – | – | – | – | –
COc1ccc(C(CCC(C)=O)C(=O)O)cc1OC (configuration not stated) | > 100 | > 100 | – | – | – | > 100 | > 100 | > 100 | – | – | – | – | – | – | – | – | – | – | – | –
N.N.NCCCCCN.O=C([O-])CCl.O=C([O-])CCl.O=C([O-])CCl.O=C([O-])CCl.[Pt+4].[Pt+4] | > 100 | > 100 | 91.2 | – | 3.9 | 48.9 | > 100 | 53.9 | 19 | 31800 | 17.3 | 857 | 5540 | 26.4 | 406 | – | – | – | – | –
COc1c(C)cc(O)cc1C=O | > 100 | > 100 | > 100 | > 100 | > 100 | > 100 | > 100 | > 100 | – | – | – | – | – | – | – | – | – | – | – | –
COc1ccccc1NC(=O)C1=C(C)NC(C)=C(C(=O)Nc2ccccc2OC)C1C1=CC=COC1 | 45.3 | 15 | 80 | > 100 | > 100 | > 100 | 61.6 | 15.5 | – | – | – | – | – | – | – | – | – | – | – | –
COC(=O)CCC(NC(=S)N/N=C/c1ccccn1)C(=O)OC (configuration not stated) | > 100 | > 100 | > 100 | > 100 | > 100 | > 100 | > 100 | > 100 | – | – | – | – | – | – | – | – | – | – | – | –
Cc1cc([N+](=O)[O-])ccc1NC(=O)C(=O)C(C(=O)c1ccccc1-c1ccccc1)C1OC(=O)c2ccccc21 (configuration not stated) | – | 36.8 | 30 | 72.2 | 28.5 | 28.9 | 33.8 | 13.5 | – | – | – | – | – | – | – | – | – | – | – | –
c1ccc([CH2][Sn]([CH2]c2ccccc2)([O]c2cccc3cccnc23)[O]c2cccc3cccnc23)cc1 | 1.35 | 1.37 | 1.2 | – | 2.85 | 1.06 | 3.1 | 0.447 | 0.398 | 394 | 0.32 | 1380 | 338 | 1.67 | 178 | – | – | – | – | –
COc1ccc(N=Cc2c(O)ccc3c2oc2cc(Cl)c(O)c(Cl)c23)cc1 | – | 25.7 | – | 30 | 41.7 | 38.9 | 48.3 | 33.7 | – | 7380 | – | 13700 | 17500 | 20.3 | 10300 | 4450 | 23.1 | 4840 | 14800 | 57.3
COc1ccc(/C=C(/C(=O)N2CCN(c3ccccc3)CC2)c2cc(OC)c(OC)c(OC)c2)cc1N | – | > 100 | – | > 100 | > 100 | > 100 | > 100 | > 100 | – | 388 | – | 3200 | 569 | 72.1 | 272 | 357 | > 100 | 524 | 414 | > 100
COC1C(CO)OC(n2c3ccccc3c3c4c(c5c6ccccc6[nH]c5c32)C(=O)NC4=O)C(O)C1O (configuration not stated) | – | > 31.9 | – | – | 0.108 | 2.24 | 0.548 | 0.0902 | – | 524 | – | 11.3 | 270 | 0.143 | 16.9 | 180 | 0.757 | 20.2 | 206 | 7.06
CC[C@H]1CN2CCc3cc(OC)c(OC)cc3C2C[C@@H]1CC1NCCc2cc(OC)c(OC)cc21 (some centres not stated) | – | 2.02 | – | 3.75 | 0.194 | 0.645 | 0.572 | 0.316 | – | – | – | – | – | – | – | – | 1.75 | – | – | 0.275
COC(=O)[C@@H](C)C[C@H](Cc1cn(C)c2ccccc12)NC(=O)c1csc([C@@H](C[C@H](C(C)C)N(C)C(=O)[C@@H](NC(=O)[C@H]2CCCCN2C)C(C)C)OC(C)=O)n1 | – | > 16.7 | – | > 16.7 | > 12 | > 16.7 | > 16.7 | > 16.7 | – | 66.5 | – | 98.3 | 67.1 | 2.77 | 7.45 | 10.5 | 7.58 | 13 | 13.9 | > 16.7
CCOC(=O)c1ccccc1OC(=O)NNc1ccccc1 | – | > 100 | – | > 100 | > 100 | > 100 | > 100 | > 28.2 | – | 862 | – | > 23700 | 5340 | 7.05 | 269 | > 31900 | > 100 | 465 | 7910 | > 100
CCN(CC)CCNc1ccc(C)c2sc3cc(Cl)ccc3c(=O)c12 | – | 3.12 | – | 3.28 | 3.58 | 3.1 | 3.77 | 3.54 | – | 1500 | – | 1740 | 1610 | 2.2 | 1870 | 1650 | 3.9 | 1550 | 1540 | 3.01
